Test results taken from PMC4389225, “Triaminopyrimidine is a fast-killing and long-acting antimalarial clinical candidate” (Nature Communications, 2015).
Like-named read-outs stand apart in the source and are kept apart here.

How the values were obtained:
[1] = tested on: asexual blood stage of Pf; assay: Pf asexual blood stage potency (Pf IC50); type: cell-based, Plasmodium falciparum; settings: for IC50: Plasmodium falciparum
Excerpt: The TAPs series emerged from a high-throughput screen (HTS) of 500,000 compounds from the AstraZeneca corporate library against the asexual blood stage of Pf using a high-content image-based approach. The procedure for synthesis of compounds 1-6, 10, 11 using a scheme similar to Fig. 1 is provided in Supplementary Note 1. The initial hit provided multiple diversification points for a robust lead optimization campaign. […] Compounds with 2-pyridyl modification at the 2-amino position of pyrimidine core improved potency and solubility at the cost of potent activity against hERG and acetylcholine esterase (AChE; compounds 3-6; Table 1). […] The observed hERG and AChE selectivity improvement with 7 could be attributed to the polar nature of the pyrazole group and its role in reducing the pKa of the core pyrimidine ring. […] To assess the potential for cross-resistance, representative TAPs were screened against a panel of clinical isolates and in vitro-generated mutant strains displaying varying mechanisms of resistance to antimalarial agents currently in use and under development, respectively, (Supplementary Tables 1–3).

[2] = molecular target: T1, hERG (Homo sapiens, UniProt Q12809); assay: electrophysiology-based hERG assay using IonWorks HT (CHO cells); type: cell-based
T1 construct: expressed in transfected cells; host or cells: CHO cells
T1 sequence (Q12809 whole entry): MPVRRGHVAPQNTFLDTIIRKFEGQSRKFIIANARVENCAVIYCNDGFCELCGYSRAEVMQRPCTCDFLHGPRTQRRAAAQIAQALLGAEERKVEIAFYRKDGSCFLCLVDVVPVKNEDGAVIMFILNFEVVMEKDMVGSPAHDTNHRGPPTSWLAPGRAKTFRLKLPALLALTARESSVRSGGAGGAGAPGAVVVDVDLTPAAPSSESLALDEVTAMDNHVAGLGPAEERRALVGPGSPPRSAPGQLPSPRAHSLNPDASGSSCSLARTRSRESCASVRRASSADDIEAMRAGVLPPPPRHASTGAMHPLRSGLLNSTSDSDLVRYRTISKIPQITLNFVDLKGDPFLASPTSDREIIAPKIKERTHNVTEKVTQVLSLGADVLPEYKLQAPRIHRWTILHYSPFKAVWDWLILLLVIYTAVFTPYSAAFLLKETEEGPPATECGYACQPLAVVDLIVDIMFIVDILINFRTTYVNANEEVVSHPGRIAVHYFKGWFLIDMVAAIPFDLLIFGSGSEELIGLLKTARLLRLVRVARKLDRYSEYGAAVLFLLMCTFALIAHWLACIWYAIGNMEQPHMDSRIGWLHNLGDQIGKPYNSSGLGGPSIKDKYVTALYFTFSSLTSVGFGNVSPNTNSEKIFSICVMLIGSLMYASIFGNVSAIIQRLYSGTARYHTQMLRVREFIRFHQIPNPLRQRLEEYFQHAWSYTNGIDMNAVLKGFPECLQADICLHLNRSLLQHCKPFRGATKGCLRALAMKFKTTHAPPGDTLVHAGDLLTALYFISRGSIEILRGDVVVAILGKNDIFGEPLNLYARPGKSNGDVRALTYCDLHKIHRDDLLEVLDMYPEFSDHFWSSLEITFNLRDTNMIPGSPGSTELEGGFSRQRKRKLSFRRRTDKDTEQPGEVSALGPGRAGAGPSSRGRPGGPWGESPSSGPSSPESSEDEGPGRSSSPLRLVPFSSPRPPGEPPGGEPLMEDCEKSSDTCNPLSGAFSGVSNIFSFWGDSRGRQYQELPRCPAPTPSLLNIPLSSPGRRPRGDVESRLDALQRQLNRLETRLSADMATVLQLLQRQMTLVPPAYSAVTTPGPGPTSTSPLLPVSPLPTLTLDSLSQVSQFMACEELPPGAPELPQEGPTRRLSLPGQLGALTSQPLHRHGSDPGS
Method: hERG IC50 was determined in an electrophysiology-based hERG assay using IonWorks HT (CHO cells) as described earlier.

[3] = molecular target: T2, acetylcholine esterase (AChE) (Homo sapiens, UniProt P22303); assay: AChE enzyme activity assay (CEREP); type: biochemical
T2 construct: purchased CEREP, France (external assay service) 0363
T2 sequence (P22303 32-614): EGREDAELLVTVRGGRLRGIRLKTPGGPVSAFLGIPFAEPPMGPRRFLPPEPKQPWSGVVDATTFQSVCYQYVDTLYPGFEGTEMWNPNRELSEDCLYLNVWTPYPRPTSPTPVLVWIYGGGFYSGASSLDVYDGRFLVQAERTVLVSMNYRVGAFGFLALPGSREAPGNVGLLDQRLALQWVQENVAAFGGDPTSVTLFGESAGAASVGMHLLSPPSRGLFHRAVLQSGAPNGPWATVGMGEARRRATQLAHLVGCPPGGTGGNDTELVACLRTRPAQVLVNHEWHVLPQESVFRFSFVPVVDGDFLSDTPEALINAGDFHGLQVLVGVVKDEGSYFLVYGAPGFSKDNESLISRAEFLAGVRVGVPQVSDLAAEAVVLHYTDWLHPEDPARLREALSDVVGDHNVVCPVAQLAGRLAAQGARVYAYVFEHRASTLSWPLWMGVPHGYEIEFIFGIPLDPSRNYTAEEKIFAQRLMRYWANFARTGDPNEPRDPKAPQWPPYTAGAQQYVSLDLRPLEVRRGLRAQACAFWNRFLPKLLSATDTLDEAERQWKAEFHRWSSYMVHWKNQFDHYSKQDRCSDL
Method: (§1) An in vitro pharmacological profiling panel was specifically designed for the detection of potential high- risk clinical adverse drug reactions. The panel comprised of 26 diverse targets (6 enzymes, 2 transporters, 9 G-protein-coupled receptors (GPCRs), 5 ion channels along with hERG, M2, alpha1A and AchE) and was conduced externally by CEREP, France […]. […] Detailed methodology for in vitro pharmacological profiling assays provided by CEREP can be found at http://www.cerep.fr, with specific reference to the AChE (cat. no. 0363), Muscarinic M1 receptor (cat. no. 0091) and Adrenergic α1A receptor (cat. no. 2338) assays. For enzyme and kinase assays, the results were expressed as a percent inhibition of control-specific activity obtained in the presence of the test compound. The IC50 values (concentration causing a half-maximal inhibition of control-specific activity) and Hill coefficients (nH) were determined by nonlinear regression analysis of the inhibition/concentration–response curves using Hill equation curve fitting as described earlier.

[4] = molecular target: T3, α1A adrenoceptor (Homo sapiens, UniProt P35348); assay: α1A adrenoceptor radioligand binding (CEREP)
T3 construct: purchased CEREP, France (external assay service) 2338
T3 sequence (P35348 1-466): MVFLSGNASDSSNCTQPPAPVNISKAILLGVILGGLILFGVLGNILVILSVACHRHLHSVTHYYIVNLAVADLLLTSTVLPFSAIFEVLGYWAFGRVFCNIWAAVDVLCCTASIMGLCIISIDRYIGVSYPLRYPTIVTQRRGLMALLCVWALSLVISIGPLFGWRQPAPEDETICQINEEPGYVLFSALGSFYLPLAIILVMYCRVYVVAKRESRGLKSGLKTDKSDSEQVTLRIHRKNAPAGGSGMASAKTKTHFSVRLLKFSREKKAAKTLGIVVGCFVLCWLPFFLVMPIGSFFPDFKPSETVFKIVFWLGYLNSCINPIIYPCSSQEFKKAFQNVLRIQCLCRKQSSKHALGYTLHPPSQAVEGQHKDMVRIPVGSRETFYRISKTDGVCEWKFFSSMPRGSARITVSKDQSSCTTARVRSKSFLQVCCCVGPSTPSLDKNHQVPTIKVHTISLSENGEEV
Method: as §1
For radioligand binding assays, the results are expressed as % inhibition of control-specific binding obtained in the presence of the test compounds. The IC50 values (concentration causing a half-maximal inhibition of control-specific binding) and Hill coefficients (nH) were determined by nonlinear regression analysis of the competition curves generated with mean replicate values using Hill equation curve fitting. The inhibition constants (Ki) were subsequently calculated by applying the Cheng Prusoff equation[38].

[5] = tested on: Ion channel; assay: Secondary pharmacology panel, target #2
Method: (§2) An in vitro pharmacological profiling panel was specifically designed for the detection of potential high- risk clinical adverse drug reactions. […] For enzyme and kinase assays, the results were expressed as a percent inhibition of control-specific activity obtained in the presence of the test compound. The IC50 values (concentration causing a half-maximal inhibition of control-specific activity) and Hill coefficients (nH) were determined by nonlinear regression analysis of the inhibition/concentration–response curves using Hill equation curve fitting as described earlier[37].
(§3) For assessment of activity against these targets, compounds were tested in an 8-point
(§4) concentration response covering half-log units up to a top test concentration of 100 µM, and
(§5) an IC50 or Ki determined using either radio ligand binding assays or enzyme activity assays.

[6] = tested on: Ion channel; assay: Secondary pharmacology panel, target #5
Method: as §2, §3, §4, §5

[7] = tested on: GPCR; assay: Secondary pharmacology panel, target #6
Method: as §2, §3, §4, §5

[8] = tested on: Transporter; assay: Secondary pharmacology panel, target #7
Method: as §2, §3, §4, §5

[9] = tested on: Enzyme; assay: Secondary pharmacology panel, target #11
Method: (§6) For enzyme and kinase assays, the results were expressed as a percent inhibition of control-specific activity obtained in the presence of the test compound. The IC50 values (concentration causing a half-maximal inhibition of control-specific activity) and Hill coefficients (nH) were determined by nonlinear regression analysis of the inhibition/concentration–response curves using Hill equation curve fitting as described earlier[37].
as §3, §4, §5

[10] = tested on: GPCR; assay: Secondary pharmacology panel, target #13
Method: as §2, §3, §4, §5

[11] = tested on: Enzyme; assay: Secondary pharmacology panel, target #15
Method: as §6, §3, §4, §5

[12] = tested on: Ion channel; assay: Secondary pharmacology panel, target #16
Method: as §2, §3, §4, §5

[13] = tested on: Ion channel; assay: Secondary pharmacology panel, target #17
Method: as §2, §3, §4, §5

[14] = tested on: Enzyme; assay: Secondary pharmacology panel, target #19
Method: as §6, §3, §4, §5

[15] = tested on: GPCR 9; assay: Secondary pharmacology panel, target #20
Method: as §6
targets (8 enzymes, 5 ion channels, 10 GPCRs and 2 transporters) and hERG.
as §3, §4, §5

[16] = tested on: Ion channel; assay: Secondary pharmacology panel, target #21
Method: as §2, §3, §4, §5

[17] = tested on: GPCR; assay: Secondary pharmacology panel, target #22
Method: as §2, §3, §4, §5

[18] = tested on: Enzyme; assay: Secondary pharmacology panel, target #23
Method: as §6, §3, §4, §5

[19] = tested on: Enzyme; assay: Secondary pharmacology panel, target #25
Method: as §6, §3, §4, §5

[20] = tested on: GPCR; assay: Secondary pharmacology panel, target #26
Method: as §2, §3, §4, §5

[21] = Target #18, hERG, read-out: Binding Ki / Enzyme IC50
[22] = Binding Ki / Enzyme IC50, Target #3, AChE

Structure (SMILES) | IC50 [1] | IC50 [2, 21] | IC50 ([2]; hERG IC50) | IC50 [3, 22] | IC50 ([3]; read-out: AChE IC50) | IC50 [4] | Ki [4] | Binding Ki / Enzyme IC50 [5] | Binding Ki / Enzyme IC50 [6] | Binding Ki / Enzyme IC50 [7] | Binding Ki / Enzyme IC50 [8] | Binding Ki / Enzyme IC50 [9] | Binding Ki / Enzyme IC50 [10] | Binding Ki / Enzyme IC50 [11] | Binding Ki / Enzyme IC50 [12] | Binding Ki / Enzyme IC50 [13] | Binding Ki / Enzyme IC50 [14] | Binding Ki / Enzyme IC50 [15] | Binding Ki / Enzyme IC50 [16] | Binding Ki / Enzyme IC50 [17] | further results
Cc1cc(Nc2ncc(N3CCN(C)CC3)c(N3CCCC3)n2)ccn1 [compound 2] | 600 nM | 85.02 µM | 85 µM | 179 nM | 160 nM | 3100 nM | 1460 nM | 0.933 µM | 3.64 µM | 2.695 µM | 17.1 µM | > 100 µM | 38.7 µM | 13 µM | 33.2 µM | 59 µM | > 100 µM | > 100 µM | > 100 µM | > 100 µM | Selectivity ratio for AChE (IC50 / blood Cmin at ED90 in the Pf/SCID model) [3]: < 1; Selectivity ratio for α1A (IC50 / blood Cmin at ED90 in the Pf/SCID model) [4]: < 1; Binding Ki / Enzyme IC50 [18]: > 100 µM; Binding Ki / Enzyme IC50 [19]: > 100 µM; Binding Ki / Enzyme IC50 [20]: > 100 µM
Cc1nc(Nc2ncc(N3CCN(C)[C@H](C)C3)c(Nc3cc(C)n(C)n3)n2)cc(C2CC2)c1F [compound 12, (R)-N2-(4-cyclopropyl-5-fluoro-6-methylpyridin-2-yl)-N4-(1,5-dimethyl-1H-pyrazol-3-yl)-5-(3,4-dimethylpiperazin-1-yl)pyrimidine-2,4-diamine] | 9 nM | 35.9 µM | 33 µM | 78000 nM | > 75000 nM | 1200 nM | 604 nM | 2.62 µM | 8.58 µM | 7.82 µM | 3.85 µM | 4.29 µM | 11.5 µM | 11.6 µM | > 100 µM | > 100 µM | 14.5 µM | > 100 µM | > 100 µM | > 100 µM | improvement in Pf potency ([1]; compound 12 versus compound 2): > 60 fold; selectivity ratio ([2]; human, CHO cells that express hERG, relative to Pf potency, read-out: selectivity against hERG): > 1000; selectivity against AChE ([3]; relative to Pf potency): > 1,000 fold; Binding Ki / Enzyme IC50 [18]: > 100 µM; Binding Ki / Enzyme IC50 [19]: > 100 µM; Binding Ki / Enzyme IC50 [20]: > 100 µM
